Twelve molecules from patent publication US20230406840A1, “N-(2-(3-CYANO-2-AZABICYCLO[3.1.0]HEXAN-2-YL)-2-OXOETHYL)QUINOLINE-4-CARBOXAMIDES” (AstraZeneca AB, priority 2022, published 2023) can be followed below.

For data set [1], the target named is Prolyl Oligopeptidase (hPREP) (Homo sapiens (Human), UniProt P48147). Description: hPREP inhibition assay. The data set is classed as biochemical. The following applies: hPREP 0.6 nM, Z-Gly-Pro-amino-methylcoumarin 50 μM; read-out: PREP IC50. As to the method: Compounds were tested in a biochemical inhibition assay using Prolyl endopeptidase, Prolyl Oligopeptidase (hPREP) enzyme at 0.6 nM FAC (R&D Systems, 4308-SE) and the substrate Z-Gly-Pro-amino-methylcoumarin (Bachem, I-1145) at 50 μM FAC. 384 Low volume black plates (Greiner #784076) were used. […] 4 μL, 100 μM substrate solution (25 mM Tris HCl, 250 mM NaCl, 0.01% Triton X-100, 5 mM Glutathione, pH 7.5) was added to each well. Plates were centrifuged at 1000 rpm and incubated for 20 min at rt in dark. […] Data were analyzed in Genedata Screener®.

In a further data set the target is hFAP (Homo sapiens (Human), UniProt Q12884).
The next data set has as its system Human Hepatocytes (hHep). Description: Metabolic stability in human hepatocytes (hHep). The data set is classed as in vitro ADME. On the procedure:
Metabolic stability in human hepatocytes was measured as described in Xenobiotica 2010, 40, 637.

A further data set is described as follows: Kinetic solubility. The following applies: kinetic from dmso stock. It is filed as physicochemical. On the procedure:
Kinetic solubility was measured as described in Comput Aided Mol Des 2015, 29, 795.

The test system of a further data set is Rat Hepatocytes (rHep). Description: Metabolic stability in rat hepatocytes (rHep). The data set is classed as in vitro ADME. As to the method: Metabolic stability in rat hepatocytes was measured as described in J Comput Aided Mol Des 2015, 29, 795.
Data set [2] in a line: Metabolic stability in human liver microsomes (HLM). It is filed as in vitro ADME. As to the method: Metabolic stability in HLM was measured as described in J Comput Aided Mol Des 2015, 29, 795.
In general terms: Liver microsomes are a subcellular fraction often used to study metabolism.

The target of data set [3] is human Fibroblast activation protein alpha (hFAP) (Homo sapiens (Human), UniProt Q12884). Description: hFAP inhibition assay (tight binders). The data set is classed as biochemical. The following applies: tight-binder format, Ala-Pro-AMC 20 μM, 2.5 h incubation; n = 1 or geometric mean (n = 5-10). On the procedure:
Data were analyzed in Genedata Screener®.

The next data set addresses hFAP (M39-A757) (Homo sapiens (Human), UniProt Q12884).

≈ marks a conversion by molar mass, not a printed value.

Chain of human Fibroblast activation protein alpha (hFAP) (Q12884 38-760): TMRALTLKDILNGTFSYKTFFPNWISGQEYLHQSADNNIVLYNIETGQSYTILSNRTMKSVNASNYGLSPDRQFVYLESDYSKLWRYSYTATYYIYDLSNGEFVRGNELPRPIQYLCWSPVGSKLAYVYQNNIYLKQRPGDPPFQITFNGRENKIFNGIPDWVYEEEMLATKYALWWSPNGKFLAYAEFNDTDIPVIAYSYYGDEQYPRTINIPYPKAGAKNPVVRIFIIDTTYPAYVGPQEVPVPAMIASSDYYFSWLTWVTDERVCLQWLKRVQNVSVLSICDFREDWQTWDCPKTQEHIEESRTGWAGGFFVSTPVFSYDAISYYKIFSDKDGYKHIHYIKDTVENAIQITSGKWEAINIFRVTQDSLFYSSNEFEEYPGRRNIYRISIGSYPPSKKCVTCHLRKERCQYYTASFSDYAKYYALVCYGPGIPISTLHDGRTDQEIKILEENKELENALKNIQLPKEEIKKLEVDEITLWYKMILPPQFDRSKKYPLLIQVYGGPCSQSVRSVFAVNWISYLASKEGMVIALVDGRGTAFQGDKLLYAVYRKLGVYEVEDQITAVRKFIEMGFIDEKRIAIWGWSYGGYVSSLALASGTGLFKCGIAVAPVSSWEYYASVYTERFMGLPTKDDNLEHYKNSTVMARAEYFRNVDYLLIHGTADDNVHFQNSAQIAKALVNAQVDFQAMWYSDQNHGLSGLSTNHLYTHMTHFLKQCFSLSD
Chain of hFAP (Q12884 38-760): as above
Chain of Prolyl Oligopeptidase (hPREP) (P48147 whole entry): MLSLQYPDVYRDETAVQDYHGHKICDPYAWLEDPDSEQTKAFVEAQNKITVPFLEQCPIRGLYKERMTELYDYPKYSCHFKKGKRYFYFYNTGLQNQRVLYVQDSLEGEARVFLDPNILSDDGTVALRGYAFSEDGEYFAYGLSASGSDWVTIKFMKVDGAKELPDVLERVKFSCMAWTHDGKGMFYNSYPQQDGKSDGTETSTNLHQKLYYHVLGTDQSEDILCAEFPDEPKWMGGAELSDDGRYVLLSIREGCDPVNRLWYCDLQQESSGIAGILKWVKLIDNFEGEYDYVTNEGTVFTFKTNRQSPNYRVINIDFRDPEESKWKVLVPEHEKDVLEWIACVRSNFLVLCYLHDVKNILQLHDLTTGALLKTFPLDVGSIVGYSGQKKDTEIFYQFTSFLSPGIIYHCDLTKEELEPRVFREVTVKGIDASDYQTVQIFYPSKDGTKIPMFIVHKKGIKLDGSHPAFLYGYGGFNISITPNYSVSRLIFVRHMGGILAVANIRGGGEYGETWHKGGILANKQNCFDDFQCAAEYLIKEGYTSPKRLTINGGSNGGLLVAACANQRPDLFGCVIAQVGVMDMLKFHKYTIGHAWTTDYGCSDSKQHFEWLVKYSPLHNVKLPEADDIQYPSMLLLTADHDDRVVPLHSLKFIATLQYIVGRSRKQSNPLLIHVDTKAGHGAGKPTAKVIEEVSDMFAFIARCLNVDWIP
Chain of hFAP (M39-A757) (Q12884 39-757): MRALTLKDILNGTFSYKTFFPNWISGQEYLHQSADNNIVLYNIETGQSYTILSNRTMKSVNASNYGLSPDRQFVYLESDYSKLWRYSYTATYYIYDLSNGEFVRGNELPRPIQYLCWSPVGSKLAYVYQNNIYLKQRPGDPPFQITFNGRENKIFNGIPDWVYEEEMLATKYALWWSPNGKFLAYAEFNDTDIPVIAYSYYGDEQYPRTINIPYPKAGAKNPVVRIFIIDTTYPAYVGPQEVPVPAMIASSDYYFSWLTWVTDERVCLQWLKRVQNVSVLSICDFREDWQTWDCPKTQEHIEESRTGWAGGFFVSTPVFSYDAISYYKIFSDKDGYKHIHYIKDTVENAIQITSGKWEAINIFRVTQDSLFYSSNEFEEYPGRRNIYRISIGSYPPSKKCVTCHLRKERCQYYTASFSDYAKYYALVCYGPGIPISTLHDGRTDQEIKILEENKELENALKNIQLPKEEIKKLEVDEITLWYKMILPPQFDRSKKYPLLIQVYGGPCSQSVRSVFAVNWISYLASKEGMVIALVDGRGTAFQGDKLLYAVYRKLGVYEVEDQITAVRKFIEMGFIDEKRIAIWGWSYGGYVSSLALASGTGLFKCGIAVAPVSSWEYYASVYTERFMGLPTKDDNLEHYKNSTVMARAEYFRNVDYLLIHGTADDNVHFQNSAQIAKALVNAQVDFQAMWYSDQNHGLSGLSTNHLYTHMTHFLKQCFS
Method for hFAP (M39-A757): Compounds were tested in a direct binding assay using 8K surface plasmon resonance biosensor (GE Healthcare) at 20° C. Immobilization of hFAP (M39-A757) on a CMD200M sensor chip (Xantec) was performed using standard amine coupling procedure in immobilization buffer (10 mM HEPES, 150 mM NaCl, 0.05% Tween20, pH 7.4). The surface was washed with 10 mM NaOH, 1M NaCl before being activated with EDC/NHS (GE Healthcare), followed by immobilization of hFAP (in 10 mM Acetate pH 5.0). Finally, the surface was deactivated by ethanolamine. Immobilization levels of hFAP were around 4000-6000 RU. The reference spot was treated as described, omitting the injection of hFAP. Compound concentration series were injected over the immobilized protein in increasing concentrations (2-500 nM) using single cycle kinetics in running buffer (20 mM TRIS, 150 mM NaCl, 0.05% Tween20, 1% DMSO, pH 7.4). Interaction models were fitted globally to the experimental traces, enabling determination of kon, koff and Kd.

In general, IC50 refers to the concentration needed to halve the response being measured. The term solubility denotes the dissolved amount per volume that the medium holds. Low readings indicate little dissolved substance, high ones much dissolved substance. Usually microsomal CLint stands for the capacity of the preparation to metabolise the compound, expressed as a volume cleared per time. Read a high microsomal CLint as rapid turnover. For `Cc1cc(C(=O)NCC(=O)N2[C@H](C#N)C[C@@H]3C[C@@H]32)c2ccc(F)cc2n1` [Example 8, N-(2-((1S,3S,5S)-3-Cyano-2-azabicyclo[3.1.0]hexan-2-yl)-2-oxoethyl)-7-fluoro-2-methylquinoline-4-carboxamide], the IC50 amounted to 44000 nM in data set [1], 71 nM on hFAP and 20 nM in data set [3]. Besides, the “hHep CLint” value in the data set with Human Hepatocytes (hHep) is below 1 μL/min/1E6. This molecule yielded a solubility in “Kinetic solubility” of 890 µM (≈ 314 µg/mL). In the data set on Rat Hepatocytes (rHep), the “rHeps CLint” value was determined as 1.3 μL/min/1E6. In data set [2], the microsomal CLint was below 3 µL/min/mg.
By Kd is commonly meant the constant that tells how readily two partners part at equilibrium. The low end stands for higher affinity, the high end for lower affinity. Regarding `N#C[C@@H]1C[C@@H]2C[C@@H]2N1C(=O)CNC(=O)c1ccnc2ccc(CF)cc12` [Example 11, N-(2-((1S,3S,5S)-3-Cyano-2-azabicyclo[3.1.0]hexan-2-yl)-2-oxoethyl)-6-(fluoromethyl)quinoline-4-carboxamide], the values for the IC50 (in data set [1]; at hFAP; in data set [3]) were above 50000 nM, 2.2 nM and 0.4 nM, respectively. The molecule also showed a Kd at hFAP (M39-A757) of 17 nM. Also, the solubility in “Kinetic solubility” turned out to be 970 µM (≈ 342 µg/mL). Further, the “rHeps CLint” value in the data set on Rat Hepatocytes (rHep) was determined as 5.3 μL/min/1E6. Besides, the microsomal CLint in data set [2] is below 3 µL/min/mg.
For `CC(C)(F)c1ccc2nccc(C(=O)NCC(=O)N3[C@H](C#N)C[C@@H]4C[C@@H]43)c2c1` [Example 12, N-(2-((1S,3S,5S)-3-Cyano-2-azabicyclo[3.1.0]hexan-2-yl)-2-oxoethyl)-6-(2-fluoropropan-2-yl)quinoline-4-carboxamide], the results for the IC50 (in data set [1]; against hFAP; in data set [3]) were above 50000 nM, 3.8 nM and 0.75 nM, respectively. Binding at hFAP (M39-A757) was characterised by a dissociation constant (Kd) of 13 nM. Besides, the solubility in the data set “Kinetic solubility” came out at 300 µM (≈ 114 µg/mL). Moreover, the “rHeps CLint” value in the data set on Rat Hepatocytes (rHep) is on record as 20 μL/min/1E6. Further, the microsomal CLint in data set [2] was 100 µL/min/mg.
In the case of `CC(C)(O)c1ccc2nccc(C(=O)NCC(=O)N3[C@H](C#N)C[C@@H]4C[C@@H]43)c2c1` [Example 13, N-(2-((1S,3S,5S)-3-Cyano-2-azabicyclo[3.1.0]hexan-2-yl)-2-oxoethyl)-6-(2-hydroxypropan-2-yl)quinoline-4-carboxamide], the IC50 in data set [1] is above 50000 nM; at hFAP it was 3.8 nM; in data set [3], 0.86 nM. For the same molecule, the “hHep CLint” value with Human Hepatocytes (hHep) is reported as below 1 μL/min/1E6. In the data set “Kinetic solubility”, this molecule yielded a solubility above 1000 µM. In the data set with Rat Hepatocytes (rHep), the “rHeps CLint” value came to 2 μL/min/1E6. Further, in data set [2], the microsomal CLint was below 3 µL/min/mg.
For the molecule `COC(C)c1ccc2nccc(C(=O)NCC(=O)N3[C@H](C#N)C[C@@H]4C[C@@H]43)c2c1` (stereo partly drawn) [Example 15, N-(2-((1S,3S,5S)-3-Cyano-2-azabicyclo[3.1.0]hexan-2-yl)-2-oxoethyl)-6-(1-methoxyethyl)quinoline-4-carboxamide], the values for the IC50 (in data set [1]; against hFAP; in data set [3]) were above 50000 nM, 16 nM and 1.1 nM, respectively. Besides, the “hHep CLint” value in the data set with Human Hepatocytes (hHep) turned out to be 3.3 μL/min/1E6. In “Kinetic solubility”, the solubility is above 1000 µM. Further, in the data set on Rat Hepatocytes (rHep), the “rHeps CLint” value was determined as 9.4 μL/min/1E6. Moreover, the microsomal CLint in data set [2] stood at 30 µL/min/mg.
As for `COC(C)(C)c1ccc2nccc(C(=O)NCC(=O)N3[C@H](C#N)C[C@@H]4C[C@@H]43)c2c1` [Example 16, N-(2-((1S,3S,5S)-3-Cyano-2-azabicyclo[3.1.0]hexan-2-yl)-2-oxoethyl)-6-(2-methoxypropan-2-yl)quinoline-4-carboxamide], the IC50 in data set [1] is above 50000 nM; at hFAP, 4.2 nM; in data set [3] it was 0.81 nM. The molecule further gave a dissociation constant Kd at hFAP (M39-A757) of 20 nM. The solubility in “Kinetic solubility” was above 1000 µM. Moreover, the “rHeps CLint” value in the data set on Rat Hepatocytes (rHep) worked out at 21 μL/min/1E6. In data set [2], the microsomal CLint worked out at 72 µL/min/mg.
On to `N#C[C@@H]1C[C@@H]2C[C@@H]2N1C(=O)CNC(=O)c1ccnc2ccc(COC(F)(F)F)cc12` [Example 17, N-(2-((1S,3S,5S)-3-Cyano-2-azabicyclo[3.1.0]hexan-2-yl)-2-oxoethyl)-6-((trifluoromethoxy)methyl)quinoline-4-carboxamide], for which the IC50 in data set [1] is above 50000 nM; against hFAP it was 1.7 nM; in data set [3], 0.38 nM. At hFAP (M39-A757), this molecule yielded a Kd of 8.5 nM. The molecule further displayed a solubility in the data set “Kinetic solubility” of 340 µM (≈ 142 µg/mL). Further, in the data set with Rat Hepatocytes (rHep), the “rHeps CLint” value was 21 μL/min/1E6. For the same molecule, the microsomal CLint in data set [2] came to 110 µL/min/mg.
On to `CC(C)(F)c1ccc2c(C(=O)NCC(=O)N3[C@H](C#N)C[C@@H]4C[C@@H]43)ccnc2c1` [Example 21, N-(2-((1S,3S,5S)-3-Cyano-2-azabicyclo[3.1.0]hexan-2-yl)-2-oxoethyl)-7-(2-fluoropropan-2-yl)quinoline-4-carboxamide], for which the IC50 is above 50000 nM in data set [1], 2.8 nM against hFAP and 0.97 nM in data set [3]. At hFAP (M39-A757), this molecule displayed a Kd of 10 nM. The solubility in “Kinetic solubility” stood at 56 µM (≈ 21.3 µg/mL). Besides, the “rHeps CLint” value with Rat Hepatocytes (rHep) is listed as 70 μL/min/1E6. This molecule also returned a microsomal CLint in data set [2] of 13 µL/min/mg.
As for `N#C[C@@H]1C[C@@H]2C[C@@H]2N1C(=O)CNC(=O)c1ccnc2cc(C(F)F)ccc12` [Example 22, N-(2-((1S,3S,5S)-3-Cyano-2-azabicyclo[3.1.0]hexan-2-yl)-2-oxoethyl)-7-(difluoromethyl)quinoline-4-carboxamide], the IC50 in data set [1] was above 50000 nM; against hFAP, 1.5 nM; in data set [3] it was 0.51 nM. For the same molecule, the “hHep CLint” value in the data set on Human Hepatocytes (hHep) was below 1 μL/min/1E6. In the data set “Kinetic solubility”, this molecule registered a solubility above 1000 µM. In addition, the “rHeps CLint” value in the data set on Rat Hepatocytes (rHep) worked out at 2.9 μL/min/1E6. In data set [2], this molecule gave an intrinsic clearance (microsomal CLint) below 5.8 µL/min/mg.
`COC(C)c1ccc2c(C(=O)NCC(=O)N3[C@H](C#N)C[C@@H]4C[C@@H]43)ccnc2c1` (stereo partly drawn) [Example 27, N-(2-((1S,3S,5S)-3-Cyano-2-azabicyclo[3.1.0]hexan-2-yl)-2-oxoethyl)-7-(1-methoxyethyl)quinoline-4-carboxamide]: the IC50 in data set [1] was above 50000 nM; at hFAP, 6 nM; in data set [3], 2 nM. Further, in the data set with Human Hepatocytes (hHep), the “hHep CLint” value turned out to be 3.1 μL/min/1E6. In “Kinetic solubility”, this molecule showed a solubility above 1000 µM. The “rHeps CLint” value in the data set on Rat Hepatocytes (rHep) is recorded as 7.2 μL/min/1E6. In data set [2], this molecule yielded a microsomal CLint of 21 µL/min/mg.
`CC(C)Oc1ccc2nccc(C(=O)NCC(=O)N3[C@H](C#N)C[C@@H]4C[C@@H]43)c2c1` [Example 34, N-(2-((1S,3S,5S)-3-Cyano-2-azabicyclo[3.1.0]hexan-2-yl)-2-oxoethyl)-6-isopropoxyquinoline-4-carboxamide]: the figures for the IC50 (in data set [1]; on hFAP; in data set [3]) were above 50000 nM, 4.1 nM and 1.2 nM, respectively. In the data set on Human Hepatocytes (hHep), the “hHep CLint” value worked out at 15 μL/min/1E6. For the same molecule, the solubility in the data set “Kinetic solubility” was determined as 850 µM (≈ 322 µg/mL). For the same molecule, the “rHeps CLint” value in the data set with Rat Hepatocytes (rHep) is on record as 20 μL/min/1E6. This molecule returned an intrinsic clearance (microsomal CLint) in data set [2] of 160 µL/min/mg.
Regarding `N#C[C@@H]1C[C@@H]2C[C@@H]2N1C(=O)CNC(=O)c1ccnc2ccc(OCC3CC3)cc12` [Example 35, N-(2-((1S,3S,5S)-3-Cyano-2-azabicyclo[3.1.0]hexan-2-yl)-2-oxoethyl)-6-(cyclopropylmethoxy)quinoline-4-carboxamide], the IC50 in data set [1] was above 50000 nM; on hFAP, 0.64 nM; in data set [3] it was 0.097 nM. Besides, the “hHep CLint” value with Human Hepatocytes (hHep) was found to be 12 μL/min/1E6. Besides, in “Kinetic solubility”, the concentration in solution (solubility) was 590 µM (≈ 230 µg/mL). Further, in the data set with Rat Hepatocytes (rHep), the “rHeps CLint” value worked out at 16 μL/min/1E6. The molecule also showed a microsomal CLint in data set [2] of 90 µL/min/mg.
